Assay results reported in patent US8134015B2, “Compound inhibiting in vivo phosphorous transport and medicine containing the same” (Kyowa Hakko Kirin Co., Ltd., priority 2003, dated 2012).

Molecular target: T1, rat NaPi-2b (Rattus norvegicus, UniProt Q9JJ09)
T1 construct: expressed in transfected cells; host or cells: Xenopus oocytes injected with cRNA
T1 sequence (Q9JJ09 1-695): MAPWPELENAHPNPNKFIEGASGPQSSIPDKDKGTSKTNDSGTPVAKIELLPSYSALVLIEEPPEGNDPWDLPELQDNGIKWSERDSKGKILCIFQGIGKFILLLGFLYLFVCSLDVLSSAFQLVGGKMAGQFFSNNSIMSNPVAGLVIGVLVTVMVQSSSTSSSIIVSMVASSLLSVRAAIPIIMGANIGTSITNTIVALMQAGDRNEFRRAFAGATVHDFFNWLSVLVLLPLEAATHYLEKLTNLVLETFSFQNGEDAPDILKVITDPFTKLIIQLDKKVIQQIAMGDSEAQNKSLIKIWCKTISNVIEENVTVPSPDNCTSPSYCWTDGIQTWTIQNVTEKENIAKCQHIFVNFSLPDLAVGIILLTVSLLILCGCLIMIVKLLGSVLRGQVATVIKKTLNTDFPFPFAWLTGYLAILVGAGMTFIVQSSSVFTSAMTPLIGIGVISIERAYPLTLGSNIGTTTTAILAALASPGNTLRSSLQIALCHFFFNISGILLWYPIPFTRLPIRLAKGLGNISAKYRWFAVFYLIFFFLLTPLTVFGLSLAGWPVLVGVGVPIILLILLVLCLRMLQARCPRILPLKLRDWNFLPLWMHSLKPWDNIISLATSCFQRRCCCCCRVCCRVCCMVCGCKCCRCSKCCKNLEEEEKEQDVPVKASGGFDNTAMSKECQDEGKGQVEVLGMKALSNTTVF
Experiment: Sodium-dependent phosphate uptake of Xenopus oocytes which expressed NaPi-2b (32P)
Format: cell-based
Conditions: Xenopus oocytes expressing rat NaPi-2b, 32P radioactive phosphorus; read-out: IC50 (phosphate uptake inhibitory activity)
Procedure, shortened: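 Oocytes injected with rat NaPi-2b cRNA, cultured 2 d, then 32P uptake measured with compound. Values: % inhibition at 300 and 100 μM, both from one inhibition curve.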

Compound	IC50 [µM]
CCN(CCO)Cc1cccc(C(=O)Nc2ccc(Cl)cc2C(=O)N/N=C/c2ccc(O)cc2)c1 [Compound 431, N-[4-Chloro-2-(4-hydroxy-benzylidene-hydrazinocarbonyl)-phenyl]-3-{[ethyl-(2-hydroxy-ethyl)-amino]-methyl}-benzamide]	5.57
CCN(CCO)Cc1ccc(C(=O)Nc2ccc(Cl)cc2C(=O)N/N=C/c2cccc(F)c2)cc1 [Compound 432, N-[4-Chloro-2-(3-fluoro-benzylidene-hydrazinocarbonyl)-phenyl]-4-{[ethyl-(2-hydroxy-ethyl)-amino]-methyl}-benzamide]	22.2
CCN(CCO)Cc1ccc(C(=O)Nc2ccc(Cl)cc2C(=O)N/N=C/c2ccc(F)cc2)cc1 [Compound 433, N-[4-Chloro-2-(4-fluoro-benzylidene-hydrazinocarbonyl)-phenyl]-4-{[ethyl-(2-hydroxy-ethyl)-amino]-methyl}-benzamide]	14.3
CCN(CCO)Cc1ccc(C(=O)Nc2ccc(Cl)cc2C(=O)N/N=C/c2cccc(C)c2)cc1 [Compound 434, N-[4-Chloro-2-(3-methyl-benzylidene-hydrazinocarbonyl)-phenyl]-4-{[ethyl-(2-hydroxy-ethyl)-amino]-methyl}-benzamide]	7.78
CCN(CCO)Cc1ccc(C(=O)Nc2ccc(Cl)cc2C(=O)N/N=C/c2ccc(C)cc2)cc1 [Compound 435, N-[4-Chloro-2-(4-methyl-benzylidene-hydrazinocarbonyl)-phenyl]-4-{[ethyl-(2-hydroxy-ethyl)-amino]-methyl}-benzamide]	7.65
CCN(CCO)Cc1ccc(C(=O)Nc2ccc(Cl)cc2C(=O)N/N=C/c2ccc(C)c(C)c2)cc1 [Compound 436, N-[4-Chloro-2-(3,4-dimethyl-benzylidene-hydrazinocarbonyl)-phenyl]-4-{[ethyl-(2-hydroxy-ethyl)-amino]-methyl}-benzamide]	8.36
CCN(CCO)Cc1ccc(C(=O)Nc2ccc(Cl)cc2C(=O)N/N=C/c2ccc(Cl)c(C(F)(F)F)c2)cc1 [Compound 437, N-[4-Chloro-2-(4-chloro-3-trifluoromethyl-benzylidene-hydrazinocarbonyl)-phenyl]-4-{[ethyl-(2-hydroxy-ethyl)-amino]-methyl}-benzamide]	< 3
CCN(CCO)Cc1ccc(C(=O)Nc2ccc(Cl)cc2C(=O)N/N=C/c2cccc(OC)c2)cc1 [Compound 438, N-[4-Chloro-2-(3-methoxy-benzylidene-hydrazinocarbonyl)-phenyl]-4-{[ethyl-(2-hydroxy-ethyl)-amino]-methyl}-benzamide]	26.3
CCN(CCO)Cc1ccc(C(=O)Nc2ccc(Cl)cc2C(=O)N/N=C/c2ccc(OC)cc2)cc1 [Compound 439, N-[4-Chloro-2-(4-methoxy-benzylidene-hydrazinocarbonyl)-phenyl]-4-{[ethyl-(2-hydroxy-ethyl)-amino]-methyl}-benzamide]	28.7
CCN(CCO)Cc1ccc(C(=O)Nc2ccc(Cl)cc2C(=O)N/N=C/c2cccc(O)c2)cc1 [Compound 440, N-[4-Chloro-2-(3-hydroxy-benzylidene-hydrazinocarbonyl)-phenyl]-4-{[ethyl-(2-hydroxy-ethyl)-amino]-methyl}-benzamide]	32.4
CCN(CCO)Cc1ccc(C(=O)Nc2ccc(Cl)cc2C(=O)N/N=C/c2ccc(O)cc2)cc1 [Compound 441, N-[4-Chloro-2-(4-hydroxy-benzylidene-hydrazinocarbonyl)-phenyl]-4-{[ethyl-(2-hydroxy-ethyl)-amino]-methyl}-benzamide]	40.1
CN(C)CCn1nnnc1SCc1cccc(C(=O)Nc2ccc(Cl)cc2C(=O)N/N=C/c2cccc(F)c2)c1 [Compound 462, N-[4-Chloro-2-(3-fluoro-benzylidene-hydrazinocarbonyl)-phenyl]-3-[1-(2-dimethylamino-ethyl)-1H-tetrazol-5-ylsulfanylmethyl]-benzamide]	< 3
CN(C)CCn1nnnc1SCc1cccc(C(=O)Nc2ccc(Cl)cc2C(=O)N/N=C/c2ccc(F)cc2)c1 [Compound 463, N-[4-Chloro-2-(4-fluoro-benzylidene-hydrazinocarbonyl)-phenyl]-3-[1-(2-dimethylamino-ethyl)-1H-tetrazol-5-ylsulfanylmethyl]-benzamide]	4.44
Cc1cccc(/C=N/NC(=O)c2cc(Cl)ccc2NC(=O)c2cccc(CSc3nnnn3CCN(C)C)c2)c1 [Compound 464, N-[4-Chloro-2-(3-methyl-benzylidene-hydrazinocarbonyl)-phenyl]-3-[1-(2-dimethylamino-ethyl)-1H-tetrazol-5-ylsulfanylmethyl]-benzamide]	5
Cc1ccc(/C=N/NC(=O)c2cc(Cl)ccc2NC(=O)c2cccc(CSc3nnnn3CCN(C)C)c2)cc1 [Compound 465, N-[4-Chloro-2-(4-methyl-benzylidene-hydrazinocarbonyl)-phenyl]-3-[1-(2-dimethylamino-ethyl)-1H-tetrazol-5-ylsulfanylmethyl]-benzamide]	7.43
Cc1ccc(/C=N/NC(=O)c2cc(Cl)ccc2NC(=O)c2cccc(CSc3nnnn3CCN(C)C)c2)cc1C [Compound 466, N-[4-Chloro-2-(3,4-dimethyl-benzylidene-hydrazinocarbonyl)-phenyl]-3-[1-(2-dimethylamino-ethyl)-1H-tetrazol-5-ylsulfanylmethyl]-benzamide]	< 3
CN(C)CCn1nnnc1SCc1cccc(C(=O)Nc2ccc(Cl)cc2C(=O)N/N=C/c2ccc(Cl)c(C(F)(F)F)c2)c1 [Compound 467, N-[4-Chloro-2-(4-chloro-3-trifluoromethyl-benzylidene-hydrazinocarbonyl)-phenyl]-3-[1-(2-dimethylamino-ethyl)-1H-tetrazol-5-ylsulfanylmethyl]-benzamide]	7.94
COc1cccc(/C=N/NC(=O)c2cc(Cl)ccc2NC(=O)c2cccc(CSc3nnnn3CCN(C)C)c2)c1 [Compound 468, N-[4-Chloro-2-(3-methoxy-benzylidene-hydrazinocarbonyl)-phenyl]-3-[1-(2-dimethylamino-ethyl)-1H-tetrazol-5-ylsulfanylmethyl]-benzamide]	22.4
COc1ccc(/C=N/NC(=O)c2cc(Cl)ccc2NC(=O)c2cccc(CSc3nnnn3CCN(C)C)c2)cc1 [Compound 469, N-[4-Chloro-2-(4-methoxy-benzylidene-hydrazinocarbonyl)-phenyl]-3-[1-(2-dimethylamino-ethyl)-1H-tetrazol-5-ylsulfanylmethyl]-benzamide]	33.2
CN(C)CCn1nnnc1SCc1cccc(C(=O)Nc2ccc(Cl)cc2C(=O)N/N=C/c2cccc(O)c2)c1 [Compound 470, N-[4-Chloro-2-(3-hydroxy-benzylidene-hydrazinocarbonyl)-phenyl]-3-[1-(2-dimethylamino-ethyl)-1H-tetrazol-5-ylsulfanylmethyl]-benzamide]	23.5
CCN(CC)CCN(C)Cc1cccc(C(=O)Nc2ccc(I)cc2C(=O)N/N=C/c2cccc(F)c2)c1 [Compound 472, 3-{[(2-Diethylamino-ethyl)-methyl-amino]-methyl}-N-[2-(3-fluoro-benzylidene-hydrazinocarbonyl)-4-iodo-phenyl]-benzamide]	< 3
CCN(CC)CCN(C)Cc1cccc(C(=O)Nc2ccc(I)cc2C(=O)N/N=C/c2ccc(F)cc2)c1 [Compound 473, 3-{[(2-Diethylamino-ethyl)-methyl-amino]-methyl}-N-[2-(4-fluoro-benzylidene-hydrazinocarbonyl)-4-iodo-phenyl]-benzamide]	< 3
CCN(CC)CCN(C)Cc1cccc(C(=O)Nc2ccc(I)cc2C(=O)N/N=C/c2cccc(C)c2)c1 [Compound 474, 3-{[(2-Diethylamino-ethyl)-methyl-amino]-methyl}-N-[4-iodo-2-(3-methyl-benzylidene-hydrazinocarbonyl)-phenyl]-benzamide]	< 3
CCN(CC)CCN(C)Cc1cccc(C(=O)Nc2ccc(I)cc2C(=O)N/N=C/c2ccc(C)cc2)c1 [Compound 475, 3-{[(2-Diethylamino-ethyl)-methyl-amino]-methyl}-N-[4-iodo-2-(4-methyl-benzylidene-hydrazinocarbonyl)-phenyl]-benzamide]	< 3
CCN(CC)CCN(C)Cc1cccc(C(=O)Nc2ccc(I)cc2C(=O)N/N=C/c2ccc(C)c(C)c2)c1 [Compound 476, 3-{[(2-Diethylamino-ethyl)-methyl-amino]-methyl}-N-[2-(3,4-dimethyl-benzylidene-hydrazinocarbonyl)-4-iodo-phenyl]-benzamide]	< 3

Same assay, conditions: phosphate uptake, oocytes expressing rat NaPi-2b; 300 μM, determined from inhibition curve

Compound	inhibition at 300 µM [%]
CN(C)CCn1nnnc1SCc1cccc(C(=O)Nc2ccc(Cl)cc2C(=O)N/N=C/c2ccc(O)cc2)c1 [Compound 471, N-[4-Chloro-2-(4-hydroxy-benzylidene-hydrazinocarbonyl)-phenyl]-3-[1-(2-dimethylamino-ethyl)-1H-tetrazol-5-ylsulfanylmethyl]-benzamide]	51
